# In patent US11504370B2, “Treatment of brain cancer” (Array BioPharma Inc., priority 2012, dated 2022):
# Where two headings read alike, the source gives them in different places.
# What was measured:
# [1] = Brain pharmacokinetic (PK) study in mice; type: in vivo; conditions: for Kp at 1 h / Kp at 2 h / Kp at 4 h / concentration at 1 h / concentration at 2 h / concentration at 4 h / concentration at 0.5 h / Kp at 0.5 h: mouse; for Kp at 1 h / Kp at 2 h / Kp at 4 h / Kp at 0.5 h: brain / plasma, ARRY-380 75 mg/kg, read-out: brain:plasma ratio
# Protocol: The mice were separated into groups and their PK was studied at 4 time points (0.5, 1, 2 and 4 hours, 4 mice per group per timepoint). The animals were euthanized by CO2 inhalation at the time points. Whole blood was drawn (300 μL) by cardiac puncture and […] eppendorf tube containing ethylenediaminetetraacetic acid (“EDTA”) ([…]). The samples were centrifuged, and the plasma was decanted and frozen at -20° C. until delivered to analytical chemistry. The brains were collected. The animals were perfused with 5-10 mL of saline, and the brains were removed, weighed and placed into a fast prep tube for DMPK analysis.
# [2] = tested on: NCI-N87 gastric carcinoma cells; test: Inhibition of NCI-N87 gastric carcinoma xenograft growth in mice implanted intracranially; type: in vivo; conditions: 75 mg/kg PO BID; intracranial NCI-N87, nude BALB/c mice; FIG. 3
# Protocol: Anesthetized nude BALB/c female mice (Taconic Laboritories Inc., Germantown, N.Y.) were inoculated with human tumor cells (NCI-N87 gastric carcinoma cells, NCI, Bethesda, Md.) intracranially at lamba suture. 5×10^5 cells in saline were implanted via intracranial injection. The mice were separated into three groups (N=12); vehicle (acidified 30% Captisol®, pH about 4.5), 50 mg/kg lapatanib PO BID (30% Captisol®), and 75 mg/kg N4-(4-([1,2,4]triazolo[1,5-a]pyridin-7-yloxy)-3-methylphenyl)-N6-(4,4-dimethyl-4,5-dihydrooxazol-2-yl)quinazoline-4,6-diamine PO BID (acidified 30% Captisol®, pH about 4.5). Dosing began two days after implantation. The dose may have been reduced as necessary if drug-related weight loss (approximately 5%) was observed. The mice were monitored twice daily for general health and behavioral/neurological effects, and body weights (BW) were determined twice weekly. At first sign of neurological problem or body weight loss of greater than 20%, the mice were euthanized by CO2 inhalation. Brain and plasma were collected for analyses.
# [3] = tested on: NCI-N87 gastric carcinoma cells; test: Anti-tumor efficacy on N87 human gastric cancer in murine xenograft model (subcutaneous); type: in vivo, mice; conditions: subcutaneous NCI-N87, N=8
# Protocol: Nude nu/nu female mice (NCI, Bethesda, Md.) were split into five groups (N=8). Tumor cells (NCI-N87 gastric carcinoma cells, NCI, Bethesda, Md. 1×10^7) were implanted into the mice via subcutaneous injection (100 μL) directly on the right flank. To ensure good tumor take, the cells should be greater than 90% viable (thus, the intitial cell suspension of 1×10^7 cells/mL were injected for 1×10^6 cells injected/100 The tumors were allowed to grow to 150±50 mm^3. The tumor size was measured, and the mice were weighed. The mice were administered vehicle (30% Captisol®, 150 g in 500 mL DI water, PO, BID), lapatanib (50 mg/kg, PO, BID, 30% Captisol®), lapatanib (100 mg/kg, PO, BID, 30% Captisol®), N4-(4-([1,2,4]triazolo[1,5-a]pyridin-7-yloxy)-3-methylphenyl)-N6-(4,4-dimethyl-4,5-dihydrooxazol-2-yl)quinazoline-4,6-diamine (50 mg/kg, PO, QD, 30% Captisol) and N4-(4-([1,2,4]triazolo[1,5-a]pyridin-7-yloxy)-3-methylphenyl)-N6-(4,4-dimethyl-4,5-dihydrooxazol-2-yl)quinazoline-4,6-diamine (100 mg/kg, PO, QD, 30% Captisol). The tumor volume was measured. The number of partial responses in the mice was as follows: lapatanib (50 mg/kg) 0, lapatanib (100 mg/kg) 1, ARRY-380 (50 mg/kg) 1, ARRY-380 (100 mg/kg) 4.
# [4] = Dissolution testing at pH 6.5 in phosphate buffer; type: physicochemical; conditions: pH 6.5 phosphate buffer, 37° C., about 240 minutes
# Protocol: Dissolution testing was performed at a pH of 6.5 in phosphate buffer. […] The solid dispersion was suspended in H2O and added directly to the buffer solution at 37° C. […]
# [5] = Physicochemical analysis: hygroscopicity
# [6] = female, nude BALB/c, 1 hour, single PO dose, lapatanib 50 mg/kg
# [7] = female, nude BALB/c, 2 hour, single PO dose, lapatanib 50 mg/kg
# [8] = female, nude BALB/c, 4 hour, single PO dose, lapatanib 50 mg/kg
# [9] = female, nude BALB/c, 1 hour, single PO dose, lapatanib 50 mg/kg, ARRY-380 75 mg/kg (AR00440993 = metabolite), perfused brain, read-out: Average Brain Concentration
# [10] = female, nude BALB/c, 2 hour, single PO dose, lapatanib 50 mg/kg, ARRY-380 75 mg/kg (AR00440993 = metabolite), perfused brain, read-out: Average Brain Concentration
# [11] = female, nude BALB/c, 4 hour, single PO dose, lapatanib 50 mg/kg, ARRY-380 75 mg/kg (AR00440993 = metabolite), perfused brain, read-out: Average Brain Concentration
# [12] = 0.5 hour, single PO dose, lapatanib 50 mg/kg, ARRY-380 75 mg/kg (AR00440993 = metabolite of ARRY-380), nude female BALB/c mice
# [13] = 1 hour, single PO dose, lapatanib 50 mg/kg, ARRY-380 75 mg/kg (AR00440993 = metabolite of ARRY-380), nude female BALB/c mice
# [14] = 2 hour, single PO dose, lapatanib 50 mg/kg, ARRY-380 75 mg/kg (AR00440993 = metabolite of ARRY-380), nude female BALB/c mice
# [15] = 4 hour, single PO dose, lapatanib 50 mg/kg, ARRY-380 75 mg/kg (AR00440993 = metabolite of ARRY-380), nude female BALB/c mice
# [16] = female, nude BALB/c, 0.5 hour, single PO dose, lapatanib 50 mg/kg
# [17] = female, nude BALB/c, 0.5 hour, single PO dose, lapatanib 50 mg/kg, ARRY-380 75 mg/kg (AR00440993 = metabolite), perfused brain, read-out: Average Brain Concentration
# [18] = 50 mg/kg PO (lapatanib BID, ARRY-380 QD)
# [19] = 100 mg/kg PO (lapatanib BID, ARRY-380 QD)
compound,measurement,setting,value
"Cc1cc(Nc2ncnc3ccc(NC4=NC(C)(CO)CO4)cc23)ccc1Oc1ccn2ncnc2c1 (centres unmarked) [AR00440993, (2-((4-((4-([1,2,4]triazolo[1,5-a]pyridin-7-yloxy)-3-methylphenyl)amino)quinazolin-6-yl)amino)-4-methyl-4,5-dihydrooxazol-4-yl)methanol]",Average Brain Concentration,"[1]; 0.5 hour, single PO dose, lapatanib 50 mg/kg, ARRY-380 75 mg/kg (AR00440993 = metabolite), perfused brain",BLQ
same,brain penetration,"[1]; compared with lapatanib or ARRY-380, mice, after PO ARRY-380",significantly higher
same,Kp at 1 h,[1]; [6],2.08
same,Kp at 2 h,[1]; [7],0.48
same,Kp at 4 h,[1]; [8],1.31
same,concentration at 1 h,[1]; [9],28.9 ng/g
same,concentration at 2 h,[1]; [10],35.8 ng/g
same,concentration at 4 h,[1]; [11],40 ng/g
same,concentration at 0.5 h,"[1]; plasma, 0.5 hour, single PO dose, lapatanib 50 mg/kg, ARRY-380 75 mg/kg (AR00440993 = metabolite of ARRY-380), nude female BALB/c mice, read-out: Average Plasma Concentration",20.2 µg/mL
same,concentration at 1 h,"[1]; plasma, 1 hour, single PO dose, lapatanib 50 mg/kg, ARRY-380 75 mg/kg (AR00440993 = metabolite of ARRY-380), nude female BALB/c mice, read-out: Average Plasma Concentration",67.3 µg/mL
same,concentration at 2 h,"[1]; plasma, 2 hour, single PO dose, lapatanib 50 mg/kg, ARRY-380 75 mg/kg (AR00440993 = metabolite of ARRY-380), nude female BALB/c mice, read-out: Average Plasma Concentration",134 µg/mL
same,concentration at 4 h,"[1]; plasma, 4 hour, single PO dose, lapatanib 50 mg/kg, ARRY-380 75 mg/kg (AR00440993 = metabolite of ARRY-380), nude female BALB/c mice, read-out: Average Plasma Concentration",70.4 µg/mL
"Cc1cc(Nc2ncnc3ccc(NC4=NC(C)(C)CO4)cc23)ccc1Oc1ccn2ncnc2c1 [ARRY-380, N4-(4-([1,2,4]Triazolo[1,5-a]pyridin-7-yloxy)-3-methylphenyl)-N6-(4,4-dimethyl-4,5-dihydrooxazol-2-yl)quinazoline-4,6-diamine]",Average Plasma Concentration,[1]; [12],3350 ng/mL
same,Average Plasma Concentration,[1]; [13],6420 ng/mL
same,Average Plasma Concentration,[1]; [14],6010 ng/mL
same,Average Plasma Concentration,[1]; [15],2640 ng/mL
same,Kp at 0.5 h,[1]; [16],0.048
same,Kp at 1 h,[1]; [6],0.048
same,Kp at 2 h,[1]; [7],0.021
same,Kp at 4 h,[1]; [8],0.019
same,concentration at 0.5 h,[1]; [17],122 ng/g
same,concentration at 1 h,[1]; [9],116 ng/g
same,concentration at 2 h,[1]; [10],134 ng/g
same,concentration at 4 h,[1]; [11],42.1 ng/g
same,phospho-ErbB2/total ErbB2 in the brain,[2],significantly decreases
same,number of partial responses in the mice,[3]; [18],1
same,number of partial responses in the mice,[3]; [19],4
"CCO.Cc1cc(Nc2ncnc3ccc(NC4=NC(C)(C)CO4)cc23)ccc1Oc1ccn2ncnc2c1.Cc1cc(Nc2ncnc3ccc(NC4=NC(C)(C)CO4)cc23)ccc1Oc1ccn2ncnc2c1 [Example 21, N4-(4-([1,2,4]triazolo[1,5-a]pyridin-7-yloxy)-3-methylphenyl)-N6-(4,4-dimethyl-4,5-dihydrooxazol-2-yl)quinazoline-4,6-diamine freebase hemi-ethanolate]",AUC for the free drug species,[4],5490 ng·h/mL
same,Cmax for the free drug species,[4],0.44 µg/mL
"CS(=O)(=O)CCNCc1ccc(-c2ccc3ncnc(Nc4ccc(OCc5cccc(F)c5)c(Cl)c4)c3c2)o1 [Lapatanib, lapatinib, reference compound]",Average Plasma Concentration,[1]; [12],1910 ng/mL
same,Average Plasma Concentration,[1]; [13],4310 ng/mL
same,Average Plasma Concentration,[1]; [14],1740 ng/mL
same,Average Plasma Concentration,[1]; [15],1940 ng/mL
same,Kp at 0.5 h,[1]; [16],0.026
same,Kp at 1 h,[1]; [6],0.022
same,Kp at 2 h,[1]; [7],0.039
same,Kp at 4 h,[1]; [8],0.038
same,concentration at 0.5 h,[1]; [17],44.9 ng/g
same,concentration at 1 h,[1]; [9],90.8 ng/g
same,concentration at 2 h,[1]; [10],57.4 ng/g
same,concentration at 4 h,[1]; [11],65.4 ng/g
same,number of partial responses in the mice,[3]; [18],0
same,number of partial responses in the mice,[3]; [19],1
Cc1cc(Nc2ncnc3ccc(NC4=NC(C)(C)CO4)cc23)ccc1Oc1ccn2ncnc2c1 [REF],Hygroscopicity (% wt change at 80% RH),[5],<1% wt change at 80% RH
